According to patent publication EP4085972A1, “AMP-ACTIVATED PROTEIN KINASE INHIBITORS FOR USE IN THE TREATMENT OF PTSD IN A SUBJECT” (Consejo Superior de Investigaciones Científicas (CSIC), priority 2021, dated 2022):

How the values were obtained:
orexin neurons [1] = experiment: Patch-clamp recordings in acute hypothalamic slices (DREADD check); assay type: cell-based; conditions: hypothalamic slices of Orexin-Cre mice transduced with pAAV-hSyn-DIO-hM4D(Gi)-mCherry; CNO 2µM in perfusate
Procedure: Viral constructs. For chemogenetic experiments using DREADD, a viral construct (pAAV-hSyn-DIO-hM4D(Gi)-mCherry (AAV5; Addgene # 44362); 8.6 x 1012 viral infective units/ml) was locally injected bilaterally to inactivate orexin-cre neurons in Orexin-Cre (littermates) and transgenic mice (Firoc). As control virus, pAAV-hSyn-DIO-mCherry (AAV5; Addgene # 50459) was used. Both viral constructions were obtained from Addgene. Clozapine N-Oxide (CNO, 2mg/kg dissolved in saline 0.9%) was administered ip and 40 min later behavior was assessed, CNO efficacy in orexin neurons was confirmed in acute slices obtained from injected mice. Slices for electrophysiological recordings were prepared from 2-months old Orexin-Cre mice, 4 weeks after injection of the DREADD-mCherry virus into the lateral hypothalamus. […] Recordings were obtained at 30-32 °C from orexin+ neurons identified using fluorescence microscopy (mCherry+) in oxygenated artificial cerebrospinal fluid containing the following: 126 mM NaCl, 26 mM NaHCO3, 2.5 mM KCI, 1.25 mM NaH2PO4, 2 mM MgSO4, 2 mM CaCl2 and 10 mM glucose (pH 7.4). […] Data were analyzed using pClamp (Axon Instruments).

orexin neurons [2] = experiment: c-fos immunostaining in orexin neurons after fear conditioning; assay type: in vivo; conditions: Firoc DREADD mice treated with CNO at week 1
Procedure: Immunocytochemistry. Mice were perfused transcardially under deep anesthesia (sodium pentobarbital, 50 mg/kg, i.p.) with 100 ml of saline buffer 0.9% followed by 100 ml of 4% paraformaldehyde (PFA) in 0.1N, pH 7.4 phosphate buffer (PB), 90 min after the cued-fear conditioning test, the recall context, or under basal conditions. This time point was selected as optimal to see c-Fos staining. For experiments with systemic administration of IGF-I, animals were sacrificed 2 hours after injection. Brains were removed, post-fixed overnight at 4°C in the same fixative, and cut at 50 µm thick sections on a vibratome (Leica VT 1000S). Sections were kept at 4°C, immersed in 0.1N PB with 0.02% sodium azide, until processing. Serial coronal free-floating sections were rinsed in 0.1N PB for 10 min, and a blocking solution containing 10% normal donkey serum, and 0.4% Triton X-100 in 0.1N PB (PB-T) was added and maintained at room temperature for 2 h. Thereafter, sections were incubated overnight at 4°C in the same solution with the corresponding primary antibodies (see Antibody Table). […] Images were taken with confocal microscopy (SP5, Leica Microsystems, Germany) and analyzed with Imaris software (Bitplane).
Image analysis. […] Last, spots were created for Vgat and Vglut2 with an estimated XY size of 0.5 µm, and the number of Vgat and Vglut2 spots in orexin+ cells was counted.

fear-conditioned mice = experiment: Cued-fear conditioning (freezing behavior, context recall); assay type: in vivo
Procedure: Cued-fear conditioning. Experiments were performed at the same time of the day during the light phase with 3-4 months-old male and female mice (n=14-19 mice/genotype, balanced sex). The training and test sessions were video recorded. Mice were placed in a shuttle box chamber (AccuScan Instruments) for 120 sec before exposing them to a neutral conditioned stimulus (CS+) -a tone of 80 dB for 30s, presented together with an aversive unconditioned stimulus (US) -an electrical footshock of 0.3 mA/2 sec, except in the case of the PTSD-eliciting protocol, where 2.5 mA shocks were used. Training consisted of 5 consecutive trials with 90 sec intertrials (CS-). Animals remained in the chamber for 5 min more before returning them to their home cages. Twenty-four hours later, fear conditioning was tested placing the animals in a different context using the same protocol but without the unconditioned stimulus (US). […] Freezing behavior was defined by the absence of movement except of breathing and heart beating. Context-dependent extinction was tested 1 and 5 weeks later (delayed extinction). Mice were placed in the same context for 5 min to measure their freezing behavior. The latter unveils PTSD-like behaviour when it is abnormally retained.
Drug administration. Human recombinant IGF-I (Pre-Protech, USA) or vehicle (saline) were administered intracerebroventricularly (icv, 50 µg/kg/day) using Alzet osmotic minipumps for 7 days (Model 1007D), and the brain infusion kit 3 (Alzet, USA) with the following stereotaxic coordinates: AP= -0.5; ML= 1.1; DV= -2.5. Alzet pumps were implanted subcutaneously between the scapulae. In other experiments IGF-I was given intraperitoneally (ip, 1 µg/kg) to wild type mice submitted to the 2.5 mA fear-learning protocol 6 hours after fear conditioning. For hdM4Di (DREADD) experiments, clozapine-N-oxide (CNO, Tocris) was administered at 2mg/kg dissolved in saline 0.9%, and injected intraperitoneally 40 min before test sessions, and 24h and 1week after fear conditioning. 6-[4-(2-Piperidin-1-yl-ethoxy)-phenyl)]-3-pyridin-4-yl-pyrrazolo [1,5-a]-pyrimidine dihydrochloride (Compound C dihydrochloride, AMPK inhibitor; Cat. # CD0339, Chemdea NJ, USA) was administered intraperitoneally (ip, 10 mg/kg) 6 hours after fear conditioning to PTSD-like wild type mice.

Compound | inhibition of orexin neurons (action potential frequency, input resistance) (orexin neurons [1]) | c-fos expression in orexin neurons 5 weeks after fear conditioning (orexin neurons [2]) | freezing behavior in the fifth week after fear learning (fear-conditioned mice; Firoc DREADD mice treated with CNO 1 week after fear learning) | context-dependent fear responses (context recall) 1 week later (fear-conditioned mice; Firoc mice injected with hM4Di virus, after CNO administration) | fear responses after fear conditioning (fear-conditioned mice; Firoc mice with hM4Di DREADD virus in lateral hypothalamus, CNO 2mg/kg ip 40 min before testing) | increased freezing after 2.5 mA shock protocol (fear-conditioned mice; orexin-Cre mice injected with hM4Di virus, CNO administration) | fear behavior after the PTSD protocol (fear-conditioned mice; wild type mice, 2.5 mA shocks, Compound C ip, 10 mg/kg, 6 hours after fear conditioning)
C[N+]1([O-])CCN(C2=Nc3cc(Cl)ccc3Nc3ccccc32)CC1 [CNO, clozapine-N-oxide] | inhibition of orexin neurons was confirmed | normal | normal freezing behavior | normalized fear responses | normalized their fear responses | ameliorated | –
c1cc(-c2cnn3cc(-c4ccc(OCCN5CCCCC5)cc4)cnc23)ccn1 [Compound C] | – | – | – | – | – | – | normalized fear behavior
